One test addresses hJAK2 (Homo sapiens (Human), UniProt O60674). The test can be described thus: hJAK2 LANCE TR-FRET enzymatic assay. The class given is biochemical. The conditions noted are these: read-out: JAK2 IC50.
Another test addresses TBK1 (Homo sapiens (Human), UniProt Q9UHD2). In words: TBK1 TR-FRET enzymatic assay.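 Note: phosphorylation of a biotinylated Ser/Thr peptide by purified full-length recombinant TBK1, read by TR-FRET after 240 min at 25 °C, IC50 is the geometric mean of at least four runs.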 For orientation: In TR-FRET formats the signal depends on donor and acceptor labels being close together.

Where only a bound is given, the exact number is not on record here.

As usually defined, the IC50 is the point on the concentration scale where inhibition reaches its midpoint.

Chain of TBK1 (Q9UHD2 whole entry): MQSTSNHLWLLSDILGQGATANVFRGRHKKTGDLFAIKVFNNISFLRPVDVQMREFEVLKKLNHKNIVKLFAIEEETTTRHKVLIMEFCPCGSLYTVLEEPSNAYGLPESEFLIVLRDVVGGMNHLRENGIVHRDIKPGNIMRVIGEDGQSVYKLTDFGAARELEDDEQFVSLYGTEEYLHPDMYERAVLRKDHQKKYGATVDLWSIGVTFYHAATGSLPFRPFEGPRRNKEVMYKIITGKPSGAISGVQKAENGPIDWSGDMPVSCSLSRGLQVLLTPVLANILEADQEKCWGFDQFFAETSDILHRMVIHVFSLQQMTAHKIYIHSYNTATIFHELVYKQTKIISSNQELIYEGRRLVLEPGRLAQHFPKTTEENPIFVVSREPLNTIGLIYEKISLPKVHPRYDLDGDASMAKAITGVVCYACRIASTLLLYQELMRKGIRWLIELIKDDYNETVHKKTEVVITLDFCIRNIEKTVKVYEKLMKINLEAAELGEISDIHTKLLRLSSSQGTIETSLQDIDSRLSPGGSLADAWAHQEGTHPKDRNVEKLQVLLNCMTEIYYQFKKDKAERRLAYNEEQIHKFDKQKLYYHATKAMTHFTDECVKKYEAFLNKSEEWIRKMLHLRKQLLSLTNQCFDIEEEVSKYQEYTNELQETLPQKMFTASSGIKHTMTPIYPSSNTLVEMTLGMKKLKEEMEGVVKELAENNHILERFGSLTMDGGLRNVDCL
Chain of hJAK2 (O60674 whole entry): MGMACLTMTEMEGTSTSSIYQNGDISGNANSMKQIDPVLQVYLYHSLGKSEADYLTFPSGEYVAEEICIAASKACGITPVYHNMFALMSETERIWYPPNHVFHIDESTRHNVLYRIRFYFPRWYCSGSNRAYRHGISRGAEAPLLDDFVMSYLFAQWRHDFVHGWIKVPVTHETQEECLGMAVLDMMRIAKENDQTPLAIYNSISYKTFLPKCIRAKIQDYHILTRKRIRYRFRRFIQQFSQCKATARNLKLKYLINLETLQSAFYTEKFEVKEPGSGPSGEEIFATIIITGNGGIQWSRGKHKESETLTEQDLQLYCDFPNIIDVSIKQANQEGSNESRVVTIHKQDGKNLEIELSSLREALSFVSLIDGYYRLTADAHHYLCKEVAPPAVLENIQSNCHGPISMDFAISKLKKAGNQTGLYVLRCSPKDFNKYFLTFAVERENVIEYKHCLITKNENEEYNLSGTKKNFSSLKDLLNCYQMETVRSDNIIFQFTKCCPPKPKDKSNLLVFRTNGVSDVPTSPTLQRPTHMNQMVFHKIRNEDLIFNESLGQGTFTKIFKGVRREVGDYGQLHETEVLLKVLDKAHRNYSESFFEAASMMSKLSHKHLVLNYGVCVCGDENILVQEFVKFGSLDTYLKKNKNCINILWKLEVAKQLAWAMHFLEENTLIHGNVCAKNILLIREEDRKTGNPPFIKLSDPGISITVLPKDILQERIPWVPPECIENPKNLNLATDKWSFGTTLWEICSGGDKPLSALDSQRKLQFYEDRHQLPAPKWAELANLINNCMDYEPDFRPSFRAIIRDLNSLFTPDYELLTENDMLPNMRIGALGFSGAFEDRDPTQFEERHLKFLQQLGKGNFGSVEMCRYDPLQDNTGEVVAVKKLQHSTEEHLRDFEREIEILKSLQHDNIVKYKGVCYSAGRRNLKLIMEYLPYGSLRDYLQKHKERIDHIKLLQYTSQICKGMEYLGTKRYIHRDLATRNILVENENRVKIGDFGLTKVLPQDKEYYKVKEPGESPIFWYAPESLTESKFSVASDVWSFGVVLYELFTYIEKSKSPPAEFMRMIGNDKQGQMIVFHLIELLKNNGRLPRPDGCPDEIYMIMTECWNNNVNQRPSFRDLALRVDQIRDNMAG
Method for TBK1: Enzymatic activity of IKKε and TBK1 was measured using a homogeneous time resolved fluorescence resonance energy transfer (TR-FRET) assay that monitors enzyme dependent phosphorylation of a biotinylated serine/threonine peptide substrate. […] TBK1 and IKKε were expressed and purified as full length recombinant proteins. Detection reagents for the assay were purchased from Cisbio. […] After an assay reaction time of 240 minutes at 25° C., reactions were terminated with EDTA.
All IC50 values represent geometric mean values of a minimum of four determinations.

`COc1cc(Nc2ncnc(-c3ccc(O[C@H]4CCN(C(=O)[C@H](O)CO)C[C@H]4F)c(C#N)c3)n2)ccc1N1CCN(C2COC2)CC1` [Example 579, 2-(((3R,4S)-1-((R)-2,3-dihydroxypropanoyl)-3-fluoropiperidin-4-yl)oxy)-5-(4-((3-methoxy-4-(4-(oxetan-3-yl)piperazin-1-yl)phenyl)amino)-1,3,5-triazin-2-yl)benzonitrile]: on hJAK2, the IC50 came to 48 nM. Same read-out and setting: the figure for `COc1cc(Nc2ncnc(-c3ccc(O[C@H]4CCN(C(=O)[C@H](C)O)C[C@H]4F)c(C#N)c3)n2)cnc1N1CCN(C2COC2)CC1` [Example 514, 2-(((3R,4S)-3-fluoro-1-((S)-2-hydroxypropanoyl)piperidin-4-yl)oxy)-5-(4-((5-methoxy-6-(4-(oxetan-3-yl)piperazin-1-yl)pyridin-3-yl)amino)-1,3,5-triazin-2-yl)benzonitrile] is at least 1000 nM. In turn, `C[C@H](O)C(=O)N1CC[C@H](Oc2ccc(-c3ncnc(Nc4ccc(C5CCN(C6COC6)CC5)cc4)n3)cc2C#N)[C@H](F)C1` [Example 311, 2-(((3R,4S)-3-fluoro-1-((S)-2-hydroxypropanoyl)piperidin-4-yl)oxy)-5-(4-((4-(1-(oxetan-3-yl)piperidin-4-yl)phenyl)amino)-1,3,5-triazin-2-yl)benzonitrile] displayed an IC50 against TBK1 of 3 nM. Turning to `C[C@H](O)C(=O)N1CC[C@H](Oc2ccc(-c3ncnc(Nc4ccc([C@@H]5C(=O)N(C)CCN5C)cc4)n3)cc2C#N)[C@H](F)C1` [Example 518, 5-(4-((4-((R)-1,4-dimethyl-3-oxopiperazin-2-yl)phenyl)amino)-1,3,5-triazin-2-yl)-2-(((3R,4S)-3-fluoro-1-((S)-2-hydroxypropanoyl)piperidin-4-yl)oxy)benzonitrile], the IC50 on hJAK2 is at least 1000 nM. On the same count and under the same terms, the figure for `N#Cc1cc(-c2ncnc(Nc3ccc(N4CCN(C5COC5)CC4)cc3)n2)ccc1O[C@@H]1CCN(C(=O)CO)CC1(F)F` (single isomer, unassigned) [Example 153] is 56 nM.

As for `N#Cc1cc(-c2ncnc(Nc3cnn(C(F)F)c3)n2)ccc1O[C@H]1CCN(C(=O)CO)C[C@H]1F` [Example 454, 5-(4-((1-(difluoromethyl)-1H-pyrazol-4-yl)amino)-1,3,5-triazin-2-yl)-2-(((3R,4S)-3-fluoro-1-(2-hydroxyacetyl)piperidin-4-yl)oxy)benzonitrile], the IC50 at hJAK2 came out at 621 nM. Turning to `N#Cc1cc(-c2ncnc(Nc3ccc(N4CCN(C5COC5)CC4)cc3)n2)ccc1O[C@H]1CCN(C(=O)[C@@H]2C[C@H](F)C(=O)N2)C[C@H]1F` [Example 406, 2-(((3R,4S)-3-fluoro-1-((2S,4S)-4-fluoro-5-oxopyrrolidine-2-carbonyl)piperidin-4-yl)oxy)-5-(4-((4-(4-(oxetan-3-yl)piperazin-1-yl)phenyl)amino)-1,3,5-triazin-2-yl)benzonitrile], the IC50 at hJAK2 was at least 1000 nM. Same read-out and setting: the same measure for `C[C@H](O)C(=O)N1CC[C@H](Oc2ccc(-c3ncnc(Nc4ccc(N5CCN(C6COC6)CC5)cc4)n3)cc2C#N)[C@H](F)C1` [Example 238, 2-(((3R,4S)-3-fluoro-1-((8)-2-hydroxypropanoyl)piperidin-4-yl)oxy)-5-(4-((4-(4-(oxetan-3-yl)piperazin-1-yl)phenyl)amino)-1,3,5-triazin-2-yl)benzonitrile]: 445 nM. On TBK1, `C[C@@H](O)C(=O)N1CC[C@@H](Oc2ccc(-c3ncnc(Nc4ccc(N5CCN(C6COC6)CC5)cc4)n3)cc2C#N)C1` [Example 91, 2-(((R)-1-((R)-2-hydroxypropanoyl)pyrrolidin-3-yl)oxy)-5-(4-((4-(4-(oxetan-3-yl)piperazin-1-yl)phenyl)amino)-1,3,5-triazin-2-yl)benzonitrile] displayed an IC50 of 145 nM.

Turning to `CC1(C)CN(C(=O)CO)CC[C@H]1Oc1ccc(-c2ncnc(Nc3ccc(N4CCN(C5COC5)CC4)cc3)n2)cc1C#N` (single isomer, unassigned) [Example 176], the IC50 on hJAK2 turned out to be 133 nM. Same read-out and setting: the figure for `CC(=O)N1CC[C@H](Oc2ccc(-c3ncnc(Nc4ccc(S(C)(=N)=O)cc4)n3)cc2C#N)C(F)(F)C1` (stereo partly shown) [Example 481] is 320 nM; for `COc1cc(Nc2ncnc(-c3ccc(O[C@H]4CCN(C(=O)CC#N)C[C@H]4F)c(C#N)c3)n2)ccc1N1CCN(C2COC2)CC1` [Example 558, 2-(((3R,4S)-1-(2-cyanoacetyl)-3-fluoropiperidin-4-yl)oxy)-5-(4-((3-methoxy-4-(4-(oxetan-3-yl)piperazin-1-yl)phenyl)amino)-1,3,5-triazin-2-yl)benzonitrile] it is 26 nM. The same measure, in the same setting: the figure for `Cc1n[nH]c(C)c1C(=O)N1CC[C@H](Oc2ccc(-c3ncnc(Nc4ccc(N5CCN(C6COC6)CC5)cc4)n3)cc2C#N)[C@H](F)C1` [Example 135, 2-(((3R,4S)-1-(3,5-dimethyl-1H-pyrazole-4-carbonyl)-3-fluoropiperidin-4-yl)oxy)-5-(4-((4-(4-(oxetan-3-yl)piperazin-1-yl)phenyl)amino)-1,3,5-triazin-2-yl)benzonitrile] is 212 nM; for `Cc1cc(Nc2ncnc(-c3ccc(O[C@H]4CCN(C(=O)[C@H](O)CO)C[C@H]4F)c(C#N)c3)n2)ccc1N1CCN(C2COC2)CC1` [Example 576, 2-(((3R,4S)-1-((R)-2,3-dihydroxypropanoyl)-3-fluoropiperidin-4-yl)oxy)-5-(4-((3-methyl-4-(4-(oxetan-3-yl)piperazin-1-yl)phenyl)amino)-1,3,5-triazin-2-yl)benzonitrile] it is 56 nM. `N#Cc1cc(-c2ncnc(Nc3ccc4c(c3)OC(F)(F)O4)n2)ccc1OC1CCOCC1` [Example 275, 5-(4-((2,2-difluorobenzo[d][1,3]dioxol-5-yl)amino)-1,3,5-triazin-2-yl)-2-((tetrahydro-2H-pyran-4-yl)oxy)benzonitrile] yielded an IC50 at TBK1 of 115 nM.

`N#Cc1cc(-c2ncnc(Nc3ccc(N4CCN(C5CCOCC5)CC4)cc3)n2)ccc1O[C@H]1CCN(C(=O)CO)C[C@H]1F` [Example 306, 2-(((3R,4S)-3-fluoro-1-(2-hydroxyacetyl)piperidin-4-yl)oxy)-5-(4-((4-(4-(tetrahydro-2H-pyran-4-yl)piperazin-1-yl)phenyl)amino)-1,3,5-triazin-2-yl)benzonitrile] gave an IC50 against TBK1 of 2 nM.

`N#Cc1cc(-c2ncnc(Nc3ccc(C4CCNCC4)cc3)n2)ccc1O[C@H]1CCCC[C@H]1F` (racemic) [Example 292, rac-2-(((1S,2R)-2-fluorocyclohexyl)oxy)-5-(4-((4-(piperidin-4-yl)phenyl)amino)-1,3,5-triazin-2-yl)benzonitrile] displayed an IC50 against TBK1 of 6 nM. For `C[C@H](O)C(=O)N1CC[C@@H](Oc2ccc(-c3ncnc(Nc4ccc(N5CCN(C6COC6)CC5)cc4)n3)cc2C#N)C1` [Example 88, 2-(((R)-1-((S)-2-hydroxypropanoyl)pyrrolidin-3-yl)oxy)-5-(4-((4-(4-(oxetan-3-yl)piperazin-1-yl)phenyl)amino)-1,3,5-triazin-2-yl)benzonitrile], the IC50 against TBK1 stood at 26 nM. Same read-out and setting: the same measure for `N#Cc1cc(-c2ncnc(Nc3ccc(N4CCN(C5COC5)CC4)cc3)n2)ccc1O[C@@H]1CN(C(=O)CO)C[C@@H]1F` [Example 101, 2-(((3R,4S)-4-fluoro-1-(2-hydroxyacetyl)pyrrolidin-3-yl)oxy)-5-(4-((4-(4-(oxetan-3-yl)piperazin-1-yl)phenyl)amino)-1,3,5-triazin-2-yl)benzonitrile]: 14 nM.

The values are drawn from patent US10040781B2, “Tank-binding kinase inhibitor compounds” (Gilead Sciences, Inc., priority 2014, dated 2018).
